Reference: patent US20260137079A1, “DISPENSER AND METHOD OF USE THEREOF” (priority 2019, published 2026)

Test: Suppression of recrystallization of actives that are solid at room temperature
Type: physicochemical
Conditions: glycol ether solvent with Transfluthrin (TFT)

effect on recrystallization of actives solid at room temperature: suppress the recrystallization
Compound: COCC(C)OCC(C)OC (stereo not shown) [DMM, Dipropylene glycol Dimethyl Ether]
